The target in experiment [1] is human orexin 1 receptor (Homo sapiens (Human), UniProt O43613). The experiment in a line: Human orexin 1 receptor radioligand binding (competitive). The following applies: CHO cells stably expressing human orexin 1 receptor; 4 nM radioligand; averages of 2-20 runs; read-out: hOX1 Ki. The protocol: (§1) The in vitro affinity of the compounds of the invention for the rat/human orexin 1 and human orexin 2 receptors was determined by competitive radioligand binding using [^3H](1-(5-(2-fluoro-phenyl)-2-methyl-thiazol-4-yl)-1-((S)-2-(5-phenyl-(1,3,4)oxadiazol-2-ylmethyl)-pyrrolidin-1-yl)-methanone) (Langmead et al., 2004) and [^3H]EMPA (n-ethyl-2[96-methoxy-pyridin-3-yl)-(toluene-2-sulfonyl)-amino]-N-pyridin-3-ylmethyl acetamide), respectively (Langmead et al., 2004, British Journal of Pharmacology 141:340-346; Malherbe et al., 2004, British Journal of Pharmacology 156:1326-41).
(§2) Data are analyzed using pc-Sandy macro and graphed on Graphpad Prism 5. For analysis, each concentration point is averaged from triplicate values and the averaged values are plotted on Graphpad Prism. The IC50 was determined by applying the following equation (GraphPad Prism 5.0, San Diego) for one site competition where X=log (concentration) and Y=specific binding. Top denotes the total [^3H]— (1-(5-(2-fluoro-phenyl)-2-methyl-thiazol-4-yl)-1-((S)-2-(5-phenyl-(1,3,4)oxadiazol-2-ylmethyl)-pyrrolidin-1-yl)-methanone) binding, bottom denotes the nonspecific [^3H]— (1-(5-(2-fluoro-phenyl)-2-methyl-thiazol-4-yl)-1-((S)-2-(5-phenyl-(1,3,4)oxadiazol-2-ylmethyl)-pyrrolidin-1-yl)-methanone) binding. Graphpad Prism calculates Ki value from IC50 and the pre-determined Kd values for [^3H]— (1-(5-(2-fluoro-phenyl)-2-methyl-thiazol-4-yl)-1-((S)-2-(5-phenyl-(1,3,4)oxadiazol-2-ylmethyl)-pyrrolidin-1-yl)-methanone) and [^3H]-EMPA. The Ki for each compound is then uploaded into 3DX. Each run comprises individual compounds in triplicate. The data in Table 1 and Table 2 represent averages from between 2-20 runs
(§3) Rat and Human Orexin 1 Receptor Radioligand Binding Studies
(§4) Human Embryonic Kidney 293 cells (HEK293) stably expressing rat orexin 1 receptor (Genebank accession number NM_001525) or Chinese ovary cells (CHO) stably expressing human orexin 1 receptor (Genebank accession number […]) were grown to confluency in DMEM (Hyclone, cat # SH30022), 10% FBS, 1× Pen/Strep, 1× sodium pyruvate, 10 mM HEPES, 600 μg/mL G418 and DMEM/F12 (Gibco, Cat #11039), 10% FBS, 1× Pen/Strep, 600 μg/mL G418 media, respectively on 150 cm^2 tissue culture plates, washed with 5 mM EDTA in PBS (HyClone Dulbecco's Phosphate Buffered Saline 1× with Calcium and Magnesium, Cat # SH30264.01, hereafter referred to simply as PBS) and scraped into 50 ml tubes. After centrifugation (2K×G, 5 min at 4° C.), the supernatant was aspirated and the pellets frozen and stored at −80° C. Cells were resuspended in PBS in the presence of 1 tablet of protease inhibitor cocktail (Roche, Cat. #11836145001) per 50 mL. […] Competition binding experiments in 96 well polypropylene plates were performed using [^3H]— (1-(5-(2-fluoro-phenyl)-2-methyl-thiazol-4-yl)-1-((S)-2-(5-phenyl-(1,3,4)oxadiazol-2-ylmethyl)-pyrrolidin-1-yl)-methanone) (Moraveck Corporation, specific activity=35.3 Ci/mmol), diluted to a 10 nM concentration in PBS (4 nM final). Compounds were solubilized in 100% DMSO (Acros Organics, Cat. #61042-1000) and tested over a range of 7 concentrations (from 0.1 nM to 10 μM). The final concentration of DMSO in the reactions is equal to or less than 0.1%. Total and nonspecific binding was determined in the absence and presence of 10 μM almorexant. The total volume of each reaction is 200 μL (20 μL of diluted compounds, 80 μL of [^3H]— (1-(5-(2-fluoro-phenyl)-2-methyl-thiazol-4-yl)-1-((S)-2-(5-phenyl-(1,3,4)oxadiazol-2-ylmethyl)-pyrrolidin-1-yl)-methanone) diluted in PBS and 100 μL of the cell suspension). Reactions were run for 60 min at room temperature and terminated by filtration through GF/C filter plates (PerkinElmer, Cat. #6005174) presoaked in 0.3% polyethylenimine using the cell harvester (PerkinElmer Filtermate). The plates were washed 3 times by aspirating 30 ml PBS through the plates. Plates were dried in 55° C. oven for 60 min, scintillation fluid was added, and the radioactivity was counted on a Topcount (Packard). […]

Experiment [2] concerns the target rat orexin 1 receptor (Rattus norvegicus, UniProt P56718). In words: Rat orexin 1 receptor radioligand binding (competitive). The following applies: HEK293 cells stably expressing rat orexin 1 receptor; 4 nM radioligand; averages of 2-20 runs; read-out: rOX1 Ki. How it is done:
as §1, §2, §3, §4

In experiment [3] the target is human orexin 2 receptor (Homo sapiens (Human), UniProt O43614). In words: Human orexin 2 receptor radioligand binding ([3H]-EMPA competition). To be noted: HEK293 stably expressing human orexin 2 receptor; 2 nM [3H]-EMPA; averages of 2-20 runs; read-out: hOX2 Ki. Put shortly:
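Membranes-free whole HEK293 cells stably expressing human OX2 receptor incubated with [3H]-EMPA and compound (7 concentrations, 0.1 nM–10 μM, ≤0.1% DMSO) for 60 min at room temperature; nonspecific binding with 10 μM almorexant. Filtration and scintillation counting; one-site IC50 converted to Ki using predetermined Kd, triplicates averaged over 2-20 runs.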

Molecules are shown by their SMILES.

human orexin 2 receptor, sequence (O43614 whole entry): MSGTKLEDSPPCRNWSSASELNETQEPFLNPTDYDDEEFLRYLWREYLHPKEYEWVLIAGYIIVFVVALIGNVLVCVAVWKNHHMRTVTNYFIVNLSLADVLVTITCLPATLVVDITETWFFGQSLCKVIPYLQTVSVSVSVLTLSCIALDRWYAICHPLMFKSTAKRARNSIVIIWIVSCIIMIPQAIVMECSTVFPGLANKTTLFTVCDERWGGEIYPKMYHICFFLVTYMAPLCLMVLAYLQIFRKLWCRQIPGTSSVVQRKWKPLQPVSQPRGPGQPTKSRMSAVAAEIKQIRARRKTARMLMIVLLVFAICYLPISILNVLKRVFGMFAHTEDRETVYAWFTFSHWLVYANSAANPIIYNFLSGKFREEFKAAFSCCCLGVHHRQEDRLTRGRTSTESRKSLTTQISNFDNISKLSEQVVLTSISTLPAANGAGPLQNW
human orexin 1 receptor, sequence (O43613 whole entry): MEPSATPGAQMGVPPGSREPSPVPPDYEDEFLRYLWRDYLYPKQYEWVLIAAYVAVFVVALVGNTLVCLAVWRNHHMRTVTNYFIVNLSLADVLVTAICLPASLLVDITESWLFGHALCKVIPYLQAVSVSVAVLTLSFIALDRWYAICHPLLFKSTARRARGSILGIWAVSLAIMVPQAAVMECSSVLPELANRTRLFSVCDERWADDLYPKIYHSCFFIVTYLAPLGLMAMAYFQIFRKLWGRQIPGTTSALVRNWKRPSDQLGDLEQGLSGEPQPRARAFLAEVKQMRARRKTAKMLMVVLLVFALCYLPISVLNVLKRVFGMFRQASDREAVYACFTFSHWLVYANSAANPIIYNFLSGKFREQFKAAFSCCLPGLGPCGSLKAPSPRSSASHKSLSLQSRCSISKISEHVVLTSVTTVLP

In general, Ki refers to a dissociation constant, usually derived from enzyme kinetics or from competition with a known ligand. In the case of `CC1C2CC(Oc3ccc(C(F)(F)F)cn3)C(C2)N1C(=O)c1cccc(F)c1-c1ncco1` (racemic) [Example 12, (R/S)-(3-fluoro-2-(oxazol-2-yl)phenyl)(3-methyl-6-((5-(trifluoromethyl)pyridin-2-yl)oxy)-2-azabicyclo[2.2.1]heptan-2-yl)methanone], the Ki in experiment [1] and in experiment [2] was 8 nM throughout.

Consider `CC1C2CC(Oc3ccc(C(F)(F)F)cn3)C(C2)N1C(=O)c1ccccc1-c1ncc(F)cn1` (racemic) [Example 19, (R/S)-(2-(5-fluoropyrimidin-2-yl)phenyl)(3-methyl-6-((5-(trifluoromethyl)pyridin-2-yl)oxy)-2-azabicyclo[2.2.1]heptan-2-yl)methanone], for which the Ki stood at 29 nM in experiment [1] and 10 nM in experiment [2].

As for `Cc1ccc(-c2ncccn2)c(C(=O)N2C(C)C3CC(Oc4cnc(C(F)(F)F)cn4)C2C3)n1` (racemic) [Example 44, (R/S)-(6-methyl-3-(pyrimidin-2-yl)pyridin-2-yl)(3-methyl-6-((5-(trifluoromethyl)pyrazin-2-yl)oxy)-2-azabicyclo[2.2.1]heptan-2-yl)methanone], the Ki amounted to 55 nM in experiment [1] and 71 nM in experiment [2].

Turning to `CC(C)CC1C2CC(Oc3ccc(C(F)(F)F)cn3)C(C2)N1C(=O)c1ccccc1-n1nccn1` (racemic) [Example 207, (R/S)-[2-isobutyl-5-[[5-(trifluoromethyl)-2-pyridyl]oxy]-3-azabicyclo[2.2.1]heptan-3-yl]-[2-(triazol-2-yl)phenyl]methanone], the results for the inhibition constant Ki in experiment [1] and in experiment [2] were 45 nM and 51 nM, respectively.

For `CCC1C2CC(Oc3ccc(C(F)(F)F)cn3)C(C2)N1C(=O)c1ccccc1-n1nccn1` (racemic) [Example 213, (R/S)-[2-ethyl-5-[[5-(trifluoromethyl)-2-pyridyl]oxy]-3-azabicyclo[2.2.1]heptan-3-yl]-[2-(triazol-2-yl)phenyl]methanone], the Ki in experiment [1] is 2 nM; in experiment [2], 4 nM.

On to `C[C@@H]1[C@H]2C[C@@H](Oc3ccc(C(F)(F)F)cn3)[C@H](C2)N1C(=O)c1ccc(F)cc1-n1nccn1` (relative stereo) [Example 28, (4-fluoro-2-(2H-1,2,3-triazol-2-yl)phenyl)((1S*,3R*,4R*,6R*)-3-methyl-6-((5-(trifluoromethyl)pyridin-2-yl)oxy)-2-azabicyclo[2.2.1]heptan-2-yl)methanone], for which the inhibition constant Ki in experiment [1] was determined as 5 nM; in experiment [2] it was 6 nM.

With `COc1ccc(C(=O)N2[C@H](C)[C@H]3C[C@@H](Oc4ccc(C(F)(F)F)cn4)[C@@H]2C3)c(-n2nccn2)c1` (relative stereo) [Example 31, (4-methoxy-2-(2H-1,2,3-triazol-2-yl)phenyl)((1S*,3R*,4R*,6R*)-3-methyl-6-((5-(trifluoromethyl)pyridin-2-yl)oxy)-2-azabicyclo[2.2.1]heptan-2-yl)methanone], the Ki in experiment [1] and in experiment [2] was 6 nM each time.

In the case of `Cc1cnc(C(=O)N2[C@H](C)[C@H]3C[C@@H](Oc4ccc(C(F)(F)F)cn4)[C@@H]2C3)c(-c2ncccn2)c1` (relative stereo) [Example 35, (5-methyl-3-(pyrimidin-2-yl)pyridin-2-yl)((1S*,3R*,4R*,6R*)-3-methyl-6-((5-(trifluoromethyl)pyridin-2-yl)oxy)-2-azabicyclo[2.2.1]heptan-2-yl)methanone], the Ki in experiment [1] turned out to be 7 nM; in experiment [2], 4 nM.

Consider `C[C@@H]1[C@H]2C[C@@H](Oc3cnc4ccccc4n3)[C@H](C2)N1C(=O)c1cccc(F)c1-n1nccn1` (relative stereo) [Example 184, (3-fluoro-2-(2H-1,2,3-triazol-2-yl)phenyl)((1S*,3R*,4R*,6R*)-3-methyl-6-(quinoxalin-2-yloxy)-2-azabicyclo[2.2.1]heptan-2-yl)methanone], for which the inhibition constant (Ki) in experiment [1] worked out at 2 nM; in experiment [2], 4 nM.

Turning to `CC1C2CC(Nc3cnc(C(F)(F)F)cn3)C(C2)N1C(=O)c1cccc(F)c1-c1ncccn1` (single isomer, unassigned) [Example 4, (R/S)-(3-fluoro-2-(pyrimidin-2-yl)phenyl)(3-methyl-6-((5-(trifluoromethyl)pyrazin-2-yl)amino)-2-azabicyclo[2.2.1]heptan-2-yl)methanone], the Ki in experiment [1] came to 59 nM; in experiment [2], 56 nM.

`CC1C2CC(Oc3ccc(C(F)(F)F)cn3)C(C2)N1C(=O)c1ccccc1-c1ncc(F)cn1` (single isomer, unassigned) [Example 19B, (2-(5-fluoropyrimidin-2-yl)phenyl)((1S*,3R*,4R*,6R*)-3-methyl-6-((5-(trifluoromethyl)pyridin-2-yl)oxy)-2-azabicyclo[2.2.1]heptan-2-yl)methanone]: the Ki was determined as 6 nM in experiment [1] and 5 nM in experiment [2].

In the case of `C[C@@H]1[C@H]2C[C@@H](Oc3ccc(C(F)(F)F)cn3)[C@H](C2)N1C(=O)c1ccccc1-c1cccc(F)n1` [Example 173, [2-(6-fluoro-2-pyridyl)phenyl]-[(1R,2R,4S,5R)-2-methyl-5-[[5-(trifluoromethyl)-2-pyridyl]oxy]-3-azabicyclo[2.2.1]heptan-3-yl]methanone], the inhibition constant (Ki) in experiment [1] stood at 5 nM; in experiment [3], 343 nM.

For `C[C@@H]1[C@H]2C[C@@H](Oc3ccc(C(F)(F)F)cn3)[C@H](C2)N1C(=O)c1cc2ccccc2nc1OCCF` [Example 205, [2-(2-fluoroethoxy)-3-quinolyl]-[(1R,2R,4S,5R)-2-methyl-5-[[5-(trifluoromethyl)-2-pyridyl]oxy]-3-azabicyclo[2.2.1]heptan-3-yl]methanone], the figures for the Ki in experiment [3] and in experiment [2] were 5400 nM and 22 nM, respectively.

`C[C@@H]1[C@H]2C[C@@H](Oc3ccc(C(F)(F)F)cn3)[C@H](C2)N1C(=O)c1c(OCCF)ccc2cccnc12` [Example 206, (7-(2-fluoroethoxy)quinolin-8-yl)((1S,3R,4R,6R)-3-methyl-6-((5-(trifluoromethyl)pyridin-2-yl)oxy)-2-azabicyclo[2.2.1]heptan-2-yl)methanone]: the Ki in experiment [3] was 286 nM; in experiment [2] it was 7.4 nM.

For the molecule `C[C@@H]1[C@H]2C[C@@H](Oc3ccc(C(F)(F)F)c(F)n3)[C@H](C2)N1C(=O)c1ccccc1-c1ncccn1` [Example 219, (2-(pyrimidin-2-yl)phenyl)((1S,3R,4R,6R)-3-methyl-6-((6-fluoro-5-(trifluoromethyl)pyridin-2-yl)oxy)-2-azabicyclo[2.2.1]heptan-2-yl)methanone], the inhibition constant Ki in experiment [3] was 1010 nM; in experiment [2], 4 nM.

For the origin of these results see US9611262B2, “Substituted 2-azabicycles and their use as orexin receptor modulators” (JANSSEN PHARMACEUTICA NV, priority 2014, dated 2017).
